1 sequence from patent publication US5135912A, “Natriuretic peptides from the pituitary prohormone proopiomelanocortin” (Tosoh Corporation, priority 1988, dated 1992) can be followed below.

Where no end group is shown, it is not given here.

This assay concerns rats. In words: Natriuretic and diuretic effect of intravenous bolus injection in anesthetized rats. The assay is classed as in vivo, rat. The note with it: 30 to 60 min after minus 30 to 0 min before injection, mean ± SEM. The protocol: Diuretic and natriuretic activity of the peptides of this invention is assayed in male rats of the Sprague-Dawley or Long-Evans strains. Peptide or vehicle (for control purposes) is administered by intravenous bolus injection or by continuous infusion into one renal artery of animals anesthetized for the duration of the experiment, or by intramuscular or subcutaneous injection into animals only briefly anesthetized with ether and subsequently conscious and freely moving until completion of the experiment. Timed urine samples are collected for determination of volume and measurement of sodium and potassium concentration by flame photometry. Details of each method are given in Examples II to IV below.
The natriuretic and diuretic effect of intravenous bolus injection of peptides F15R, G13R and E19R was tested in male Sprague-Dawley or Long-Evans rats weighing 300-400 g. The animals were given Inactin®, 120 mg per kg body weight i.p. under light ether anesthesia. Following placement of a tracheal cannula, the right femoral vein was catheterized for infusion of 5% bovine serum albumin at a dose of 0.4% of body weight and at a rate of 6.0 ml/hour. Subsequently, normal saline was infused for the duration of the experiment at a rate of 2.0 ml/hour. The bladder was exposed through an abdominal incision and catheterized for urine collection. Serial 15-minute urine collections in preweighed vials were begun after a recovery period of 45 minutes. After collection of four control samples, the peptide in 0.1 ml of vehicle was injected into the femoral vein over a period of 1 minute and 6 to 10 further urine samples were collected. Urine volume was determined by weighing and urine sodium and potassium were assayed by flame photometry. All peptides produced natriuresis and diuresis reaching peak levels usually between 30 and 60 minutes after injection. The difference between urine volume and sodium excretion observed from 30 to 60 minutes after and 30 to 0 minutes before peptide administration was calculated for each rat as a measure of activity.

Consider GNGDEQPLTPNPR [G13R], for which, for the setting “i.v. bolus 0.100 nmol”, the “Change in Sodium Excretion” value turned out to be 8.39 ± 4.41 μeq/30 minutes and the “Change in Urine Volume” value is 80.0 ± 29.2 μl/30 minutes. For the setting “i.v. bolus 1.00 nmol”, the “Change in Sodium Excretion” value amounted to 12.48 ± 6.22 μeq/30 minutes and the “Change in Urine Volume” value is recorded as 62.0 ± 17.2 μl/30 minutes.
